# Read-outs that look alike come from different tables or passages of the source.
# Key:
# [1] = Solubility in water and salt solutions; type: physicochemical
# [2] = Cyclic voltammetry (three-electrode system); type: physicochemical
# Procedure: A glassy carbon (BASi, 3 mm diameter) working electrode, an Ag/AgCl reference electrode (BASi, 3 M NaCl solution), and a graphite counter electrode were used in the three-electrode system for all CV tests. The scan rates for CV tests were 10, 20, 50, 100, and 200 mV s^−1. The diffusion coefficient D was calculated based on the Randles-Sevcik equation: Ip=269000×n^1.5 AD^0.5v^0.5C, where Ip is the peak current in amps, n is the number of electrons involved (n=2 for 2,6-N-TSAQ) in the redox reaction, A is the active surface area (0.0707 cm^2), D is the diffusion coefficient in cm^2/s, v is the scan rate in V/s, and C is the concentration of redox species in mol/cm^3.
# The reduction potential of 2,6-N-TSAQ is-0.62 V vs. SHE in 1M NaCl, which is 120 mV and 170 mV lower than that of 2,6-O-DPSAQ and 2,6-DPSAQ in 1M NaCl, respectively. The low redox potential of 2,6-N-TSAQ is attributed to the strong electron donating effect of N-alkyl group. It contributes to form a high working voltage and high power density flow battery. […] The ammonium cation, however, sacrifices the redox potential of 2,6-N-TSAQ as the local pH is always lower than the pKa2 of 9,10-dihydroxyanthracene, which is also observed in the reported 9,10-anthraquinone-2,7-disulfonic diammonium salt.
# [3] = Long-term cycling of 0.1 M 2,6-N-TSAQ/ferrocyanide flow cell
# Procedure: Flow battery experiments were performed with cell and hardware from Fuel Cell Tech. (Albuquerque, NM). Pyrosealed POCO graphite flow plates with serpentine flow designs were used for both electrodes. Each electrode comprised a single 5 cm^2 geometric surface area sheet of AvCarb carbon electrode. For 2,6-N-TSAQ/ferrocyanide full cell tests, a Nafion™ 212 membrane was used to serve as the ion-selective membrane. The Nafion membrane was soaked in the supporting electrolyte (sodium hydroxide or sodium chloride) for at least 24 hours before use. Viton sheets were used to cover the outer portion space between the electrodes. Torque used for cell assembly was 60 lb-in (6.78 Nm) on each of eight 1/4-28 bolts. The electrolytes were fed into the cell through fluorinated ethylene propylene (FEP) tubing at a rate of 60 mL/min, controlled by Cole-Parmer 6 Masterflex L/S peristaltic pumps. The cell was run inside a glove box (1 ppm O2). Cell polarization measurements and charge-discharge cycling were conducted using a Biologic BCS-815 battery cycler. […] The polarization curves were obtained by charging to a desired state of charge first and then polarizing via linear sweep voltammetry at a rate of 100 mV s^−1.
# Long-term cycling testing of 0.1 M 2,6-N-TSAQ/ferrocyanide was performed with the same cell. The cell was cycled at 40 mA cm^2 with potential holds at 1.4 V for charging and 0.6 V for discharging until the current density dropped to 2 mA cm^−2. The initial discharge capacity was 4.764 Ah L^−1, corresponding to a capacity utilization of 88.9% of the theoretical value. However, the OCV at different SOC values in FIG. 8 (a) and the typical voltage profile in FIG. 9 (c) indicates it accesses the complete capacity of 2,6-N-TSAQ under such conditions. The differences between the actual capacity and the theoretical value could come from non-redox active impurities such as water or salts in the sample. […] The average coulombic efficiency was determined to be above 99.9%. […]
# [4] = Storage in 1 M NaCl at 65° C. for 8 days, 1H NMR; type: physicochemical
# Text: For comparison, the long-term cycling of the 0.1 M 2,6-N-TSAQ/ferrocyanide cell was operated at neutral condition (1 M sodium chloride) but, otherwise, the same conditions. The initial volumetric capacity was 4.774 Ah L^−1, which is similar to that at pH 14. After 2.84 days cycling, the discharge capacity dropped to 4.412 Ah/L, corresponding to a capacity fade rate of 2.6%/day, which is around 2 orders magnitude higher than that at pH 14. And the coulombic efficiency is around 99.8% over the whole cycling process, which is slightly lower than that at pH 14. […] To investigate the origin of instability of 2,6-N-TSAQ at neutral condition, both oxidized and reduced forms of 2,6-N-TSAQ were stored in 1 M NaCl at 65° C. for 8 days.
# [5] = water, read-out: water solubility
"solubility [1, 5] [mM]",reduction potential ([2]; 1M NaCl (unbuffered)) [V vs. SHE],"reduction potential lower than that of 2,6-DPSAQ ([2]; difference versus 2,6-DPSAQ) [mV]","reduction potential lower than that of 2,6-O-DPSAQ ([2]; difference versus 2,6-O-DPSAQ) [mV]","solubility ([1]; water, with ammonium ion exchange, read-out: solubility) [mM]","capacity fade rate ([3]; neutral condition (1 M sodium chloride), 0.1 M, 2.84 days cycling) [%/day]","cycle-denominated capacity fade rate ([3]; pH 14, 0.1 M, full SOC range cycling) [%/cycle]","temporal capacity fade rate ([3]; pH 14, 0.1 M, full SOC range cycling, 9 days) [%/day]","decomposition by 1H NMR, oxidized state ([4]; oxidized form)","decomposition by 1H NMR, reduced state ([4]; reduced form)","solubility ([1]; 1 M lithium chloride, saline or isotonic, 1 M lithium chloride, read-out: solubility) [mM]","solubility ([1]; 1 M sodium chloride, saline or isotonic, 1 M sodium chloride, read-out: solubility) [mM]","solubility ([1]; deionized water, water, deionized water, read-out: solubility) [mM]",Structure (SMILES)
300,,,,,,,,,,,,,"O=C1c2ccc(CCCS(=O)(=O)[O-])cc2C(=O)c2ccc(CCCS(=O)(=O)[O-])cc21.[Na+].[Na+] [2,6-DPSAQ, sodium 3,3′-(9,10-anthraquinone-2,6-diyl)bis(propane-1-sulfonate)]"
450,−0.62,170,120,650,2.6,0.00024,0.025,no apparent decomposition,a large quantity of decomposition,,,,"O=C1c2ccc(N(CCCS(=O)(=O)O)CCCS(=O)(=O)O)cc2C(=O)c2ccc(N(CCCS(=O)(=O)O)CCCS(=O)(=O)O)cc21 [2,6-N-TSAQ, sodium 3,3′,3″,3′″-((9,10-anthraquinone-2,6-diyl)bis(azanetriyl))tetrakis(propane-1-sulfonate)]"
,,,,,,,,,,10,< 5,10,"O=C1c2ccc(OCCCS(=O)(=O)[O-])cc2C(=O)c2ccc(OCCCS(=O)(=O)[O-])cc21.[Na+].[Na+] [2,6-O-DPSAQ, sodium 3,3′-((9,10-anthraquinone-2,6-diyl)bis(oxy))bis(propane-1-sulfonate)]"
